From patent US4372877A, “Di(acylperoxy)-1,4-cyclohexane dimethanol-bis-carbonates” (priority 1981, dated 1983)

Legend:
[1] = disclosed in prior art U.S. patents; cited from earlier work
[2] = Vinyl chloride suspension polymerization (% conversion)
Procedure: As mentioned, the instant bis-carbonates are useful for the initiation of monomers having polymerizable ethylenic or vinyl unsaturation, such as ethylene, styrene, methyl methacrylate and vinyl chloride and copolymers thereof. The data was generated with suspension polymerization performed in 12 ounce pop bottles using uninhibited monomer. Duplicate bottles were analyzed at each time interval for which data is listed. Bottles were frozen before venting off of excess monomer. Mixing speed of the pop bottles was 42 rpm. The water to vinyl chloride monomer ratio was 2.50. Each pop bottle contained 0.35 gms Dow Methocel 90 HG, 100 cps suspension agent per 100 gms vinyl chloride monomer.

[3] = Ten-hour half-life temperature (0.1 M in benzene); type: physicochemical
Source text: Table I provides the ten-hour half-life of the compounds of the instant invention synthesized in Examples 1-3.
Peroxide (0.1 M in benzene)

[4] = Hot Block Gel Tests With Polyester Resin; conditions: block 180 °F, 1% wt peroxide (100% purity basis)
Source text: As mentioned above, the new molecules can be used for curing of polyester resins and this utility is illustrated in Tables V and VI below. Typical prior art peroxy dicarbonates and carbonates of the prior art are included for comparison.
Hot Block Gel Tests With Polyester Resin
Resin: MR 941 (U.S.S. Chemical - orthophthalic)
Concentrations of peroxide adjusted to 100% purity basis, 1% wt

[5] = Storage stability at 40 °C; type: physicochemical; design: A.O.: unit not given here
Procedure: APCD from Example 1 is selected as representative and was tested over a period of 89 days at 40° C. Representative peroxy carbonate and dicarbonates of the prior art are also included for comparison.
Storage Stability at 40° C.

[6] = 55 °C, 5.5 Hrs., 2.01 × 10^-4 moles/100g VCM (APCD 0.070, LPCD 0.126, BPCD 0.095 % wt)
[7] = 55 °C, 5.5 Hrs., 2.30 × 10^-4 moles/100g VCM (APCD 0.080, LPCD 0.145, BPCD 0.109 % wt)
[8] = 60 °C, 5.0 Hrs., 1.15 × 10^-4 moles/100g VCM (APCD 0.040, LPCD 0.072, BPCD 0.054 % wt)
[9] = 60 °C, 5.0 Hrs., 1.45 × 10^-4 moles/100g VCM (APCD 0.051, LPCD 0.091 % wt)

Compound	Ten-Hour Half-Life Temperature [3] [°C]	Exotherm Time ([4]; Table VI) [min]	Gel Time ([4]; Table VI) [min]	Exotherm Time ([4]; Table V) [min]	Gel Time ([4]; Table V) [min]	% Purity ([5]; 0 days elapsed) [%]	A.O. ([5]; 0 days elapsed)	% Purity ([5]; 7 days elapsed) [%]	A.O. ([5]; 7 days elapsed)	% Purity ([5]; 14 days elapsed) [%]	A.O. ([5]; 14 days elapsed)	% Purity ([5]; 28 days elapsed) [%]	A.O. ([5]; 28 days elapsed)	% Purity ([5]; 59 days elapsed) [%]	A.O. ([5]; 59 days elapsed)	% Purity ([5]; 89 days elapsed) [%]	A.O. ([5]; 89 days elapsed)	further results
O=C(OOC(=O)OC1CCCCCCCCCCC1)OC1CCCCCCCCCCC1 [dicyclododecyl peroxy dicarbonate]	–	–	–	–	–	–	–	–	–	–	–	–	–	–	–	–	–	stability at room/ambient temperature [1]: stability that permits storage at room temperature
CCCCCCCCCCCC(=O)OOC(=O)OCC1CCC(COC(=O)OOC(=O)CCCCCCCCCCC)CC1 (stereo not drawn) [LPCD, di(lauroylperoxy)-1,4-cyclohexane dimethanol bis-carbonate]	51.4	4.96	4.05	–	–	–	–	–	–	–	–	–	–	–	–	–	–	% Conversion [2, 6]: 60.9%; % Conversion [2, 7]: 72.0%; % Conversion [2, 8]: 51.4%; % Conversion [2, 9]: 65.4%
O=C(OCCOc1ccccc1)OOC(=O)OCCOc1ccccc1 [di(phenoxyethyl) peroxydicarbonate]	42.2	–	–	5.62	5.45	97.4	4.31	94.4	4.17	93.3	4.12	91.1	4.03	84.7	3.74	73.1	3.23	–
CC(C)(C)C1CCC(OC(=O)OOC(=O)OC2CCC(C(C)(C)C)CC2)CC1 (stereo not drawn) [Di(4-t-butylcyclohexyl) peroxydicarbonate]	43.0	3.58	2.74	3.39	2.46	97.8	3.92	96.4	3.86	96.4	3.86	95.2	3.82	93.0	3.73	93.2	3.74	–
CCCCCCCCCCCCCCCCCCOC(=O)OOC(C)=O [acetyl peroxystearyl carbonate]	–	–	–	4.05	3.13	94.1	4.04	93.5	4.01	93.1	4.00	91.5	3.92	87.9	3.77	78.8	3.38	–
CC(C)(COC(=O)OOC(=O)OCC(C)(C)c1ccccc1)c1ccccc1 [di(2-methyl-2-phenylpropyl) peroxy dicarbonate]	–	–	–	–	–	–	–	–	–	–	–	–	–	–	–	–	–	stability at room/ambient temperature [1]: ambient temperature stability
CC(=O)OOC(=O)OCC1CCC(COC(=O)OOC(C)=O)CC1 (stereo not drawn) [APCD, di(acetylperoxy)-1,4-cyclohexane dimethanol bis-carbonate]	55.2	4.20	3.58	4.05	3.38	99.6	9.15	99.5	9.14	98.3	9.03	97.7	8.98	95.4	8.77	93.4	8.58	% Conversion ([2]; 55 °C, 1.5 Hrs., 2.23 × 10^-4 moles/100g VCM (APCD 0.0775 % wt)): 13.6%; % Conversion ([2]; 55 °C, 3.5 Hrs., 2.23 × 10^-4 moles/100g VCM (APCD 0.0775 % wt)): 42.0%; % Conversion ([2]; 55 °C, 5.5 Hrs., 0.85 × 10^-4 moles/100g VCM (APCD 0.030 % wt)): 35.7%; % Conversion ([2]; 55 °C, 5.5 Hrs., 1.15 × 10^-4 moles/100g VCM (APCD 0.040 % wt)): 45.6%; % Conversion ([2]; 55 °C, 5.5 Hrs., 1.45 × 10^-4 moles/100g VCM (APCD 0.051 % wt)): 55.7%; % Conversion ([2]; 55 °C, 5.5 Hrs., 1.72 × 10^-4 moles/100g VCM (APCD 0.060, BPCD 0.081 % wt)): 60.5%; % Conversion [2, 6]: 71.5%; % Conversion ([2]; 55 °C, 5.5 Hrs., 2.23 × 10^-4 moles/100g VCM (APCD 0.0775 % wt)): 80.3%; % Conversion [2, 7]: 83.0%; % Conversion ([2]; 60 °C, 1.5 Hrs., 1.36 × 10^-4 moles/100g VCM (APCD 0.0475 % wt)): 15.1%; % Conversion ([2]; 60 °C, 3.5 Hrs., 1.36 × 10^-4 moles/100g VCM (APCD 0.0475 % wt)): 46.9%; % Conversion ([2]; 60 °C, 5.0 Hrs., 0.85 × 10^-4 moles/100g VCM (APCD 0.030, BPCD 0.040 % wt)): 48.5%; % Conversion [2, 8]: 65.9%; % Conversion ([2]; 60 °C, 5.0 Hrs., 1.36 × 10^-4 moles/100g VCM (APCD 0.0475 % wt)): 83.1%; % Conversion [2, 9]: 86.6%
